From PubChem BioAssay (NCI)
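GI50 = concentration required for 50% inhibition of growth. Definition used: TGI = concentration required for complete inhibition of growth.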

Key:
Assay in all cases: growth of human tumour cells (NCI), 384-well format
UO-31 renal = test system: UO-31 renal
SNB-19 CNS = test system: SNB-19 CNS
TK-10 renal = test system: TK-10 renal
BT-549 breast = test system: BT-549 breast
786-0 renal = test system: 786-0 renal
UACC-257 melanoma = test system: UACC-257 melanoma
NCI-H23 lung = test system: NCI-H23 lung
MDA-MB-468 breast = test system: MDA-MB-468 breast
A498 renal = test system: A498 renal
ACHN renal = test system: ACHN renal
IGROV1 ovarian = test system: IGROV1 ovarian
SK-MEL-5 melanoma = test system: SK-MEL-5 melanoma
OVCAR-5 ovarian = test system: OVCAR-5 ovarian
T-47D breast = test system: T-47D breast
HL-60(TB) leukemia = test system: HL-60(TB) leukemia
OVCAR-8 ovarian = test system: OVCAR-8 ovarian
M14 melanoma = test system: M14 melanoma
MCF7 breast = test system: MCF7 breast
DU-145 prostate = test system: DU-145 prostate
KM12 colon = test system: KM12 colon
SF-539 CNS = test system: SF-539 CNS
NCI-H322M lung = test system: NCI-H322M lung
HT29 colon = test system: HT29 colon
SF-295 CNS = test system: SF-295 CNS
CAKI-1 renal = test system: CAKI-1 renal
UACC-62 melanoma = test system: UACC-62 melanoma
NCI-H460 NSCLC = test system: NCI-H460 NSCLC
SF-268 CNS = test system: SF-268 CNS
PC-3 prostate = test system: PC-3 prostate
A549 NSCLC = test system: A549 NSCLC
OVCAR-4 ovarian = test system: OVCAR-4 ovarian
SK-MEL-2 melanoma = test system: SK-MEL-2 melanoma
SK-OV-3 ovarian = test system: SK-OV-3 ovarian
RPMI-8226 leukemia = test system: RPMI-8226 leukemia
NCI-H226 lung = test system: NCI-H226 lung
SK-MEL-28 melanoma = test system: SK-MEL-28 melanoma
MOLT-4 leukemia = test system: MOLT-4 leukemia
HCT-116 colon = test system: HCT-116 colon
EKVX NSCLC = test system: EKVX NSCLC
OVCAR-3 ovarian = test system: OVCAR-3 ovarian
SNB-75 CNS = test system: SNB-75 CNS
HOP-92 NSCLC = test system: HOP-92 NSCLC
RXF 393 renal = test system: RXF 393 renal
U251 glioblastoma = test system: U251 glioblastoma
NCI-H522 lung = test system: NCI-H522 lung
NCI/ADR-RES ovarian = test system: NCI/ADR-RES ovarian
COLO 205 colon = test system: COLO 205 colon
SW-620 colon = test system: SW-620 colon
HS 578T breast = test system: HS 578T breast
SN12C renal = test system: SN12C renal
MDA-MB-435 melanoma = test system: MDA-MB-435 melanoma
HOP-62 NSCLC = test system: HOP-62 NSCLC
CCRF-CEM leukemia = test system: CCRF-CEM leukemia
HCT-15 colon = test system: HCT-15 colon
K-562 leukemia = test system: K-562 leukemia
LOX IMVI melanoma = test system: LOX IMVI melanoma
MDA-MB-231 breast = test system: MDA-MB-231 breast
MALME-3M melanoma = test system: MALME-3M melanoma
HCC-2998 colon = test system: HCC-2998 colon

SMILES: CNC(=O)c1cccc2cc(Oc3ccnc4cc(OCC5(N)CC5)c(OC)cc34)ccc12
- GI50 (UO-31 renal): 3.17 µM
- TGI (UO-31 renal): 10.9 µM
- GI50 (SNB-19 CNS): 3.89 µM
- TGI (SNB-19 CNS): 15.7 µM
- GI50 (TK-10 renal): 2550 nM
- TGI (TK-10 renal): 6.52 µM
- GI50 (BT-549 breast): 1780 nM
- TGI (BT-549 breast): 8.85 µM
- GI50 ([…]-0 renal): 1770 nM
- TGI (786-0 renal): 3.49 µM
- GI50 (UACC-257 melanoma): 4.04 µM
- TGI (UACC-257 melanoma): 14.2 µM
- GI50 (NCI-H23 lung): 4.73 µM
- TGI (NCI-H23 lung): 16.4 µM
- GI50 (MDA-MB-468 breast): 2380 nM
- TGI (MDA-MB-468 breast): 5.54 µM
- GI50 (A498 renal): 2500 nM
- TGI (A498 renal): 6.93 µM
- GI50 (ACHN renal): 1670 nM
- TGI (ACHN renal): 3.37 µM
- GI50 (IGROV1 ovarian): 5.36 µM
- TGI (IGROV1 ovarian): 17.5 µM
- GI50 (SK-MEL-5 melanoma): 2300 nM
- TGI (SK-MEL-5 melanoma): 8.66 µM
- GI50 (OVCAR-5 ovarian): 5.37 µM
- TGI (OVCAR-5 ovarian): 16.8 µM
- GI50 (T-47D breast): 2140 nM
- TGI (T-47D breast): 7.39 µM
- GI50 (HL-60(TB) leukemia): 2280 nM
- TGI (HL-60(TB) leukemia): 3.75 µM
- GI50 (OVCAR-8 ovarian): 4.05 µM
- TGI (OVCAR-8 ovarian): 16.1 µM
- GI50 (M14 melanoma): 3.97 µM
- TGI (M14 melanoma): 14.3 µM
- GI50 (MCF7 breast): 2370 nM
- TGI (MCF7 breast): 10.8 µM
- GI50 (DU-145 prostate): 5.43 µM
- TGI (DU-145 prostate): 17.6 µM
- GI50 (KM12 colon): 3.83 µM
- TGI (KM12 colon): 15.1 µM
- GI50 (SF-539 CNS): 621 nM
- TGI (SF-539 CNS): 4.94 µM
- GI50 (NCI-H322M lung): 6.8 µM
- TGI (NCI-H322M lung): 19.4 µM
- GI50 (HT29 colon): 5.88 µM
- TGI (HT29 colon): 17.9 µM
- GI50 (SF-295 CNS): 6.14 µM
- TGI (SF-295 CNS): 18.7 µM
- GI50 (CAKI-1 renal): 2020 nM
- TGI (CAKI-1 renal): 5.35 µM
- GI50 (UACC-62 melanoma): 2370 nM
- TGI (UACC-62 melanoma): 6.72 µM
- GI50 (NCI-H460 NSCLC): 2740 nM
- TGI (NCI-H460 NSCLC): 7.12 µM
- GI50 (SF-268 CNS): 4.31 µM
- TGI (SF-268 CNS): 17.9 µM
- GI50 (PC-3 prostate): 4.42 µM
- TGI (PC-3 prostate): 16.2 µM
- GI50 (A549 NSCLC): 4.22 µM
- TGI (A549 NSCLC): 14.6 µM
- GI50 (OVCAR-4 ovarian): 1480 nM
- TGI (OVCAR-4 ovarian): 4.04 µM
- GI50 (SK-MEL-2 melanoma): 1890 nM
- TGI (SK-MEL-2 melanoma): 4.35 µM
- GI50 (SK-OV-3 ovarian): 3.01 µM
- TGI (SK-OV-3 ovarian): 11.6 µM
- GI50 (RPMI-8226 leukemia): 1980 nM
- TGI (RPMI-8226 leukemia): 5.13 µM
- GI50 (NCI-H226 lung): 1030 nM
- TGI (NCI-H226 lung): 4.73 µM
- GI50 (SK-MEL-28 melanoma): 12.1 µM
- TGI (SK-MEL-28 melanoma): 24.6 µM
- GI50 (MOLT-4 leukemia): 1200 nM
- TGI (MOLT-4 leukemia): 2450 nM
- GI50 (HCT-116 colon): 1980 nM
- TGI (HCT-116 colon): 3.84 µM
- GI50 (EKVX NSCLC): 3.66 µM
- TGI (EKVX NSCLC): 14.8 µM
- GI50 (OVCAR-3 ovarian): 2230 nM
- TGI (OVCAR-3 ovarian): 5.94 µM
- GI50 (SNB-75 CNS): 1020 nM
- TGI (SNB-75 CNS): 9.33 µM
- GI50 (HOP-92 NSCLC): 4.13 µM
- TGI (HOP-92 NSCLC): 15.2 µM
- GI50 (RXF 393 renal): 1640 nM
- TGI (RXF 393 renal): 4.39 µM
- GI50 (U251 glioblastoma): 3.73 µM
- TGI (U251 glioblastoma): 14.9 µM
- GI50 (NCI-H522 lung): 2750 nM
- TGI (NCI-H522 lung): 9.57 µM
- GI50 (NCI/ADR-RES ovarian): 13.3 µM
- TGI (NCI/ADR-RES ovarian): 27 µM
- GI50 (COLO 205 colon): 3.22 µM
- TGI (COLO 205 colon): 10.2 µM
- GI50 (SW-620 colon): 4.12 µM
- TGI (SW-620 colon): 15 µM
- GI50 (HS 578T breast): 1230 nM
- TGI (HS 578T breast): 4.08 µM
- GI50 (SN12C renal): 2550 nM
- TGI (SN12C renal): 8.63 µM
- GI50 (MDA-MB-435 melanoma): 2630 nM
- TGI (MDA-MB-435 melanoma): 7.43 µM
- GI50 (HOP-62 NSCLC): 2910 nM
- TGI (HOP-62 NSCLC): 15.5 µM
- GI50 (CCRF-CEM leukemia): 1670 nM
- TGI (CCRF-CEM leukemia): 3.23 µM
- GI50 (HCT-15 colon): 3.87 µM
- TGI (HCT-15 colon): 13.1 µM
- GI50 (K-562 leukemia): 1700 nM
- TGI (K-562 leukemia): 3.59 µM
- GI50 (LOX IMVI melanoma): 2410 nM
- TGI (LOX IMVI melanoma): 5.84 µM
- GI50 (MDA-MB-231 breast): 3.64 µM
- TGI (MDA-MB-231 breast): 14.4 µM
- GI50 (MALME-3M melanoma): 4.05 µM
- TGI (MALME-3M melanoma): 15.7 µM
- GI50 (HCC-2998 colon): 5.53 µM
- TGI (HCC-2998 colon): 16 µM
